Measured values published in ChEMBL document CHEMBL1201862, “PubChem BioAssay data set” (2004).
Calls of active or inactive are those of the source.

Tests used:
[1] = molecular target: T1, Calpain-2 catalytic subunit (Sus scrofa, UniProt P43367); experiment: m-calpain protease blockers, concentration series – biochemical, fluorogenic peptide substrate, dose response (AID 1420); assay type: functional
T1 sequence (P43367 whole entry): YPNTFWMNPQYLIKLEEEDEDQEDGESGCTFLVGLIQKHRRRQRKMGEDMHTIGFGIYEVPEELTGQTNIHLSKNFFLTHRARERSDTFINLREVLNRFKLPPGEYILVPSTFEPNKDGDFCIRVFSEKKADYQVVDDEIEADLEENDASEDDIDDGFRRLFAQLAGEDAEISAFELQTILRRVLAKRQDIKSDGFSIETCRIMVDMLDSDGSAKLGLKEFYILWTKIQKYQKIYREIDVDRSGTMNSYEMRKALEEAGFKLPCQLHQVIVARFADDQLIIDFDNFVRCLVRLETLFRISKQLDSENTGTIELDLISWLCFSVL

[2] = molecular target: FAD-linked sulfhydryl oxidase ALR (Homo sapiens, UniProt P55789); experiment: ALR-catalysed DTT oxidation blockers – biochemical, H2O2 detection, luminescence, cherry-pick, dose response (AID 493248)
[3] = Trypanosoma cruzi growth suppression in host cells – NIH3T3 host cells, beta-gal luminescence, confirmation (AID 2044); assay type: functional, cell-based;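 note: intracellular parasites grown in NIH/3T3 mouse fibroblasts as host cells; luminescent beta-galactosidase reporter signal from transgenic T. cruzi replicating inside host cells; inhibitors lower the luminescence signal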
[4] = NIH3T3 cell viability loss – ATP luminescence, mouse fibroblasts, counter-screen, dose response (AID 2010); assay type: functional, cell-based; conditions: NIH3T3;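 note: cells exposed to compound for about 90 hours before reading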
cells = assay type: functional
Cytochrome P450 2C19 = Cytochrome P450 2C19 (Homo sapiens, UniProt P33261); experiment: Cytochrome panel assay with activity outcomes. Panel member name: p450-cyp2c19 Compounds with AC50 equal or less than 10 uM are considered active; assay type: functional
Cytochrome P450 2C9 = Cytochrome P450 2C9 (Homo sapiens, UniProt P11712)
Cytochrome P450 1A2 = molecular target: T2, Cytochrome P450 1A2 (Homo sapiens, UniProt P05177);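 note: PubChem cytochrome P450 panel assay, CYP1A2 panel member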
T2 sequence (P05177 whole entry): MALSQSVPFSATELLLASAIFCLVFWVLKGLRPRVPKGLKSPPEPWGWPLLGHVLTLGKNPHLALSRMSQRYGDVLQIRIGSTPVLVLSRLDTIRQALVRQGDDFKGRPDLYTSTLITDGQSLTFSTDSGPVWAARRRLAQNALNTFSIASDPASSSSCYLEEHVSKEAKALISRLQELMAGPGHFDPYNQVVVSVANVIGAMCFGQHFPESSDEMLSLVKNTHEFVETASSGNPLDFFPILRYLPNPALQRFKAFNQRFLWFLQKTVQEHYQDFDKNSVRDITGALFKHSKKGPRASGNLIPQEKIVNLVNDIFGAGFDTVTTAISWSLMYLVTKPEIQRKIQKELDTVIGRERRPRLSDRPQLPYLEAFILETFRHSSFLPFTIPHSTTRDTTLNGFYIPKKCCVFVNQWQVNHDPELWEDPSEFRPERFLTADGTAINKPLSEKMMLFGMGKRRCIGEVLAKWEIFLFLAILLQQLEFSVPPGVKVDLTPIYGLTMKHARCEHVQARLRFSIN

Cytochrome P450 3A4 = Cytochrome P450 3A4 (Homo sapiens, UniProt P08684);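 note: CYP3A4 tested as one member of a cytochrome P450 panel screen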
[5] = molecular target: T3, Ubiquitin-conjugating enzyme E2 N (Homo sapiens, UniProt P61088); assay type: functional;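 note: Dose-response confirmation in a TR-FRET assay detecting UBC13-driven polyubiquitin chain formation, inhibition measured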
T3 sequence (P61088 whole entry): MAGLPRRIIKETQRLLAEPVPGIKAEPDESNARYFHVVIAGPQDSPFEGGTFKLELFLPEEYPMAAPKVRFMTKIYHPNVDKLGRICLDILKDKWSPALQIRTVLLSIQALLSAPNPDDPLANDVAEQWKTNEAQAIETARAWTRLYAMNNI

Nonstructural protein 1 = Nonstructural protein 1 (Influenza A virus, UniProt Q194T2); assay type: functional, Influenza A virus (A/California/07/2009(H1N1))
[6] = molecular target: T4, Rac GTPase-activating protein 1 (Homo sapiens, UniProt Q9H0H5); experiment: blockers of MgcRacGAP-driven Rac1 GTP hydrolysis – biochemical, ADP Hunter fluorescence, primary and confirmatory, confirmation (AID 624330); assay type: functional
T4 sequence (Q9H0H5 whole entry): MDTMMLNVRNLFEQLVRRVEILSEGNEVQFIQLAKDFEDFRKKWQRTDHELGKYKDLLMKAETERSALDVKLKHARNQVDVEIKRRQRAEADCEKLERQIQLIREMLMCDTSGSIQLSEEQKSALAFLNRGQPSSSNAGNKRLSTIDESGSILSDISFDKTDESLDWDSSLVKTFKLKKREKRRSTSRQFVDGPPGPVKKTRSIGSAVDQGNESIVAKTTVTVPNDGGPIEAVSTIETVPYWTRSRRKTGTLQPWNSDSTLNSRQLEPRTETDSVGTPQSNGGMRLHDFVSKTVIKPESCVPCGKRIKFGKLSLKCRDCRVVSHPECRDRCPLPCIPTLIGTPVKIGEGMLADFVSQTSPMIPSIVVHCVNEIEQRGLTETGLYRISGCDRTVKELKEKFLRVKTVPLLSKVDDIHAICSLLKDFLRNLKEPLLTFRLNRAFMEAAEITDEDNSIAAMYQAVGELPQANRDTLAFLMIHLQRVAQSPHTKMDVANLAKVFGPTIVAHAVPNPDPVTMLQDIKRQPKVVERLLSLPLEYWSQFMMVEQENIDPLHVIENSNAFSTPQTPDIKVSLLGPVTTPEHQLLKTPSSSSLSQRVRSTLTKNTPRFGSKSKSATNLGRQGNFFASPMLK

[7] = HIV-1 AD8 envelope cell-cell fusion blockers – cherry-pick, dose response (AID 652062); assay type: functional, cell-based;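 note: luciferase signal from cell-cell fusion driven by HIV-1 clade B AD8 Env; potency is for inhibitors of fusion seen as a drop in luminescence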
Cytochrome P450 2D6 = Cytochrome P450 2D6 (Homo sapiens, UniProt P10635);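 note: CYP2D6 member of a cytochrome P450 panel assay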
[8] = molecular target: Luciferin 4-monooxygenase (Photinus pyralis, UniProt P08659); experiment: inhibition of purified Photinus pyralis luciferase – biochemical, luminescence, dose response (AID 1891)
[9] = Luminescence Cell-Based Dose Confirmation HTS to Identify Inhibitors of Platelet Dense Granule Release. [Related pubchem assays: 1663 (Primary HTS), 1678 (Summary of Project)]; assay type: functional
[10] = Luminescence Cell-Based Dose Retest to Confirm Inhibitors of Cancer Stem Cells. [Related pubchem assays (depositor defined):AID2717, AID2721]; assay type: functional; conditions: Homo sapiens

Chain of FAD-linked sulfhydryl oxidase ALR (P55789 whole entry): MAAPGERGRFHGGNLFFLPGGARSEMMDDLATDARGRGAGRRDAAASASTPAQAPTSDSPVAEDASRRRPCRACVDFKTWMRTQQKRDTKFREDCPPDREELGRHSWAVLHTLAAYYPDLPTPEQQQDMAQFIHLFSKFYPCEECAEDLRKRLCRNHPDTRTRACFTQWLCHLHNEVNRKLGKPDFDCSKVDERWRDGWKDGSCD
Chain of Cytochrome P450 2C19 (P33261 whole entry): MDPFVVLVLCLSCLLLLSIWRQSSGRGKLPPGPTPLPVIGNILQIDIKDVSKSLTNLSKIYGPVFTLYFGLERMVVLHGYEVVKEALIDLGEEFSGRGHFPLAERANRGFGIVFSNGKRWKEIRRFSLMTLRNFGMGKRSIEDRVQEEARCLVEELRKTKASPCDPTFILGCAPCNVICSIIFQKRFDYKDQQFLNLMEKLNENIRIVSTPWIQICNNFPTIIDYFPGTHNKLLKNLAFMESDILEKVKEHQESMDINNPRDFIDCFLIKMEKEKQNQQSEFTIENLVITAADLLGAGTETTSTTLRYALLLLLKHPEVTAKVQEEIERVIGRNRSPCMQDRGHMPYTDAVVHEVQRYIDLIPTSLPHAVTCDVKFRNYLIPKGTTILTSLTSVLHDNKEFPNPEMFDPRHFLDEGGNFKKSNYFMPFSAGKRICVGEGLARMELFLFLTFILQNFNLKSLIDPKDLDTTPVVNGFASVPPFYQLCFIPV
Chain of Cytochrome P450 2C9 (P11712 whole entry): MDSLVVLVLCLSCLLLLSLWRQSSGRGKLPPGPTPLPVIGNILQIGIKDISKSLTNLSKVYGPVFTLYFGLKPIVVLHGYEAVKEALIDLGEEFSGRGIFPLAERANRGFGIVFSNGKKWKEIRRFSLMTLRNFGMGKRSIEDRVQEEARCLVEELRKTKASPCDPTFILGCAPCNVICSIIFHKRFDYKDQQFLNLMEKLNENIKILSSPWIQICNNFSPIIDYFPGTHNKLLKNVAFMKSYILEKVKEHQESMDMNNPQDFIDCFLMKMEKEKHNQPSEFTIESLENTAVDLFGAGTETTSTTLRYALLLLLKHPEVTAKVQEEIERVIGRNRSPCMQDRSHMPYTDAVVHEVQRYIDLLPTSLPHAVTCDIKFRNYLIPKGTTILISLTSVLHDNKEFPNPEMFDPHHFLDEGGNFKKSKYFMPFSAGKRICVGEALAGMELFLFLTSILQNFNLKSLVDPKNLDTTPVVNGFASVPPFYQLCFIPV
Chain of Nonstructural protein 1 (Q194T2 whole entry): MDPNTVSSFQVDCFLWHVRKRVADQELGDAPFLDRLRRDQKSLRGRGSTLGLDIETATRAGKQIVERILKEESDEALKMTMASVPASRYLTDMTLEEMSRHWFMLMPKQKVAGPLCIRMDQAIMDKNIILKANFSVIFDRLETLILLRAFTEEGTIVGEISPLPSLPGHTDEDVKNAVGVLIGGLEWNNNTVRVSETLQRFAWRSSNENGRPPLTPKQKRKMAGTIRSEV
Chain of Cytochrome P450 3A4 (P08684 whole entry): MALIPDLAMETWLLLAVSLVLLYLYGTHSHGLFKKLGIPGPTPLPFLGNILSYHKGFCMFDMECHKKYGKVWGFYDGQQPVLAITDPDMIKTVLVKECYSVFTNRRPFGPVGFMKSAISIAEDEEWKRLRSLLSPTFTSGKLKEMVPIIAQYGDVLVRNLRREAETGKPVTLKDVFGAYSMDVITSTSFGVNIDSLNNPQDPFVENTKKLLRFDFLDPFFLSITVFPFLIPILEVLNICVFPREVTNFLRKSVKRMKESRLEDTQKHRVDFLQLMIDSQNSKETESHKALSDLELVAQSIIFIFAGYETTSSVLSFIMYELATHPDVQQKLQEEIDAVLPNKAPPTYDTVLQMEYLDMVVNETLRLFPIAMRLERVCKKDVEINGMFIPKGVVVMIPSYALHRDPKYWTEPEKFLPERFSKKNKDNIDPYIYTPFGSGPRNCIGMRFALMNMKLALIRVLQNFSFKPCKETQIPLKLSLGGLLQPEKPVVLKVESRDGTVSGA
Chain of Cytochrome P450 2D6 (P10635 whole entry): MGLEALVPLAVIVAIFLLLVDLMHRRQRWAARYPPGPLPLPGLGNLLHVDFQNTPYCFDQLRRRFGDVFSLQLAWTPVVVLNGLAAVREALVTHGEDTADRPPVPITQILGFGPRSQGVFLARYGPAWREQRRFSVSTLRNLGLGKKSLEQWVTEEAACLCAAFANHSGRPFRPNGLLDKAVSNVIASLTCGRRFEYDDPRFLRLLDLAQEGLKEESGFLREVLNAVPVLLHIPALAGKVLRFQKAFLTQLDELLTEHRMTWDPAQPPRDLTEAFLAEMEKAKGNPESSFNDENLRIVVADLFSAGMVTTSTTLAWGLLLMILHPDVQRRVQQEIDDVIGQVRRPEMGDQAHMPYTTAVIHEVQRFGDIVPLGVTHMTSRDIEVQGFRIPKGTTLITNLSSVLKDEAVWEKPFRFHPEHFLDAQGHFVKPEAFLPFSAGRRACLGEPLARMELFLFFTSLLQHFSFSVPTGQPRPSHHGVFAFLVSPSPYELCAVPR
Chain of Luciferin 4-monooxygenase (P08659 whole entry): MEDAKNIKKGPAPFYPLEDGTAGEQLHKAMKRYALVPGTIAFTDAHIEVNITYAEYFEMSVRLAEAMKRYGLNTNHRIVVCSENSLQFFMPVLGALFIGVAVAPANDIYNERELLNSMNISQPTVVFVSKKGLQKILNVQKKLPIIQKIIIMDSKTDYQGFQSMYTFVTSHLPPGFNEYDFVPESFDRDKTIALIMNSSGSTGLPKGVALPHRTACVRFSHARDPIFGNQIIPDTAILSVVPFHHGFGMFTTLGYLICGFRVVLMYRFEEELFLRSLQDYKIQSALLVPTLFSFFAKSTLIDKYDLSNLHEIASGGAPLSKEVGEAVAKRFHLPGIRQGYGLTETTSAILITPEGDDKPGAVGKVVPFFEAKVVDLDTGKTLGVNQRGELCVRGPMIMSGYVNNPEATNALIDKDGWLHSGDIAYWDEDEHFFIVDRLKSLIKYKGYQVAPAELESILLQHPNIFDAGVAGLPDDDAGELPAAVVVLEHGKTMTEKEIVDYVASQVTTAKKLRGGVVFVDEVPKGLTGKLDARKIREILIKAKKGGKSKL

With COc1cc(C(=O)NCc2ccc3c(c2)cc(C)n3C)cc(OC)c1OC as the compound, how does the IC50 [1] read?
The IC50 was > 50 µM (not active).

For Cn1c(S)nnc1CSCc1ccc(Cl)c(Cl)c1, which AC50 [2] is on record?
The AC50 was 3.93 µM (active).

What does the source list for O=C(c1ccc([N+](=O)[O-])cc1[N+](=O)[O-])N1CCc2ccccc21?
EC50 [3]: 0.7 µM (active); EC50 [4]: > 60 µM (not active); IC50 (cells): 0.21 µM (active)

Which AC50 [2] does the source give for O=C(Nc1cccc([N+](=O)[O-])c1)c1[nH]ncc1Cl here?
Its AC50 is 0.847 µM (active).

Which IC50 (cells) does the source give for O=C(c1ccc([N+](=O)[O-])o1)N1CCN(Cc2ccccc2)CC1 here?
The IC50 was 0.55 µM (active).

For O=c1c(-c2ccc(F)cc2)nc2cnc(N3CCOCC3)nc2n1C[C@H]1CCCO1, which AC50 (Cytochrome P450 2C19) is on record?
Its AC50 is “inconclusive”.

What about the AC50 (Cytochrome P450 2C9) of the same compound?
The AC50 was “inconclusive”.

Which IC50 [1] does the source give for CCOC(=O)C1(Cc2cccc(OC)c2)CCN(Cc2cccc(OCC)c2O)CC1 here?
Its IC50 is 8.3 µM (not active).

For CCCCN(C)CCCNC(=O)C[S+]([O-])Cc1nc(-c2ccc(OC)c(OC)c2)oc1C (configuration not stated), which AC50 (Cytochrome P450 2C19) is on record?
The AC50 was “inconclusive”.

And the AC50 (Cytochrome P450 2C9)?
The AC50 was “inconclusive”.

With Brc1ccc(-c2ccc(CNCc3ccccn3)o2)cc1 as the compound, how does the IC50 (cells) read?
The IC50 was 1.25 µM (active).

For CN(C)C(=O)c1ccc(-c2ccc3ncnc(N4CCC(C(=O)O)CC4)c3c2)cc1, which AC50 (Cytochrome P450 1A2) is on record?
The AC50 was 39.8 µM (inconclusive).

And the AC50 (Cytochrome P450 2C9)?
Its AC50 is “inconclusive”.

For COc1cc(/C(C)=N/NC(=O)CN2CCN(S(=O)(=O)c3ccc(C)cc3)CC2)ccc1O, which AC50 [2] is on record?
The AC50 was 3.76 µM (active).

Which AC50 (Cytochrome P450 2C9) does the source give for CC(C)(C)NC[C@H](O)COc1nsnc1N1CCOCC1 [TIMOLOL] here?
The AC50 was “inactive”.

Which EC50 [3] does the source give for C/C(=N\NC(=O)c1ccc(Cl)cc1)c1ccc(Br)s1 here?
The EC50 was 1.91 µM (active).

And the AC50 (Cytochrome P450 2C19; read-out: AC50)?
The AC50 was 17.8 µM (inconclusive).

And the AC50 (Cytochrome P450 3A4)?
Its AC50 is 14.1 µM (inconclusive).

And the AC50 (Cytochrome P450 2C9)?
Its AC50 is “inconclusive”.

Which IC50 [5] does the source give for CN(C)CCCN(C(=O)c1ccc2c(c1)CCCC2)c1nc2ccc(Cl)cc2s1 here?
Its IC50 is > 20 µM (inactive).

And the IC50 (Nonstructural protein 1)?
The IC50 was > 100 µM (active).

Which results are given for COc1ccc(N2CCN(C(=O)NC3CCCCC3)CC2)cc1?
AC50 [2]: 5.03 µM (active); IC50 [6]: 137 µM (active)

With COCCCN=C(S)NNC(=O)C1CC1c1ccc(C(C)(C)C)cc1 (configuration not stated) as the compound, how does the IC50 [1] read?
The IC50 was > 50 µM (not active).

For Cc1ccccc1N=C(S)NCc1ccc2[nH]c3c(c2c1)CCCC3, which IC50 (Nonstructural protein 1) is on record?
Its IC50 is > 100 µM (active).

With COc1cc(OC)c2ccc(=O)oc2c1C(CC(=O)N1CCCC1)c1ccc(N(C)C)cc1 (configuration not stated) as the compound, how does the AC50 [2] read?
The AC50 was 2.89 µM (active).

Which results are given for O=C(Nc1cccc(C(F)(F)F)c1)c1ccc(Cn2cc(Br)cn2)o1?
AC50 [7]: 29.6 µM (active); AC50 (Cytochrome P450 2D6): 22.4 µM (inconclusive)

For O=C(Nc1cnn(Cc2ccc(F)cc2)c1)C(c1ccccc1)c1ccccc1, which EC50 [8] is on record?
The EC50 was 49.5 µM (active).

What about the EC50 [9] of the same compound?
Its EC50 is 18.2 µM (active).

What about the IC50 [1] of the same compound?
Its IC50 is 9.63 µM (not active).

With O=C(CSCc1c(F)cccc1Cl)NCC1CCCO1 (configuration not stated) as the compound, how does the AC50 (Cytochrome P450 2C9) read?
Its AC50 is “inconclusive”.

Which AC50 [2] does the source give for CCN(C(=O)CN1CCN(c2ccccc2O)CC1)c1c(N)n(Cc2ccccc2)c(=O)[nH]c1=O here?
Its AC50 is 16.2 µM (active).

With Cn1cccc1CC(=O)N/N=C/c1ccc([N+](=O)[O-])cc1 as the compound, how does the AC50 [2] read?
The AC50 was 6.99 µM (active).

Which IC50 (cells) does the source give for Cc1ccc(-c2nnc(COC(=O)c3cccs3)o2)cc1 here?
Its IC50 is 17.5 µM (active).

For CCN(CC)S(=O)(=O)c1ccc(C)c(NC(S)=NNC(=O)C2CC2)c1, which IC50 [1] is on record?
The IC50 was > 50 µM (not active).

Which results are given for Cc1cc(C(=O)NNc2ccc(F)cc2)no1?
AC50 [10]: 2.05 µM (active); AC50 [2]: 10.5 µM (active)

For COc1ccc(CNc2nc3ccccc3n2C(C)C)c(O)c1, which AC50 [2] is on record?
Its AC50 is 0.146 µM (active).

For NCCCNC(=O)Cn1c(=O)c2c3c(sc2n(Cc2ccccc2)c1=O)CCCC3, which IC50 (Nonstructural protein 1) is on record?
The IC50 was > 100 µM (active).
